Data as given in patent publication US20060046966A1, “Antipicornaviral compounds and compositions, their pharmaceutical uses, and materials for their synthesis” (Agouron Pharmaceuticals, Inc., priority 1998, published 2006).
Like-named read-outs stand apart in the source and are kept apart here.

Columns and labels:
[1] = biological target: T1, rhinovirus 3C protease from HRV serotype-14 (Human rhinovirus 14, UniProt P03303); test: Inhibition of rhinovirus 3C protease (FRET assay), serotype 14; format: biochemical; settings: HRV serotype-14 3C protease; progress curves in enzyme start experiments; read-out: Protease Inhibition kobs/[I]
T1 construct: Recombinant rhinovirus 3C proteases; made in house
T1 sequence (P03303 1538-1719): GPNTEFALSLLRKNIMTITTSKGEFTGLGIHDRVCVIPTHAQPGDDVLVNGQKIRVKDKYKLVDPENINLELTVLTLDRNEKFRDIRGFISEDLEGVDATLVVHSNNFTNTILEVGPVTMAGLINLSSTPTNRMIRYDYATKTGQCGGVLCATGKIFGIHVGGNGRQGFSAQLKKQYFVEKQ
Description: (§1) Stock solutions (50 mM, in DMSO) of various compounds were prepared; dilutions were in the same solvent. Recombinant rhinovirus 3C proteases (see Birch et al., “Purification of recombinant human rhinovirus 14 3C protease expressed in Escherichia coli,” Protein Expr. Pur. 1995, 6(5), 609-618) from serotypes 14, 16, and 2 were prepared by the following standard chromatographic procedures: (1) ion exchange using Q Sepharose Fast Flow from Pharmacia; (2) affinity chromatography using Affi-Gel Blue from Biorad; and (3) sizing using Sephadex G-100 from Pharmacia. Each assay sample contained 2% DMSO, 50 mM tris pH 7.6, 1 mM EDTA, a test compound at the indicated concentration, approximately 1 μM substrate, and 50-100 nM protease. The kobs/I values were obtained from reactions initiated by addition of enzyme rather than substrate. RVP activity was measured in the fluorescence resonance energy transfer assay. The substrate was (N-terminal) DABCYL-(Gly-Arg-Ala-Val-Phe-Gln-Gly-Pro-Val-Gly)-EDANS. In the uncleaved peptide, the EDANS fluorescence was quenched by the proximal DABCYL moiety. When the peptide was cleaved, the quenching was relieved, and activity was measured as an increase in fluorescence signal. In Table 1, all data are for rhinovirus 3C protease from HRV serotype-14 (produced from the infectious cDNA clone constructed by Dr. Robert Rueckert, Institute for Molecular Virology, University of Wisconsin, Madison, Wis.). […] The data in the column designated kobs/[I] were measured from progress curves in enzyme start experiments.

[2] = tested on: HRV-14; test: Antirhinoviral H1-HeLa cell culture assay, HRV-14; format: cell-based, human rhinovirus; settings: Rhinovirus B, HRV14, H1-HeLa, HRV serotype-14, H1-HeLa cells
Description: (§2) In this cell protection assay, the ability of compounds to protect cells against HRV infection was measured by the XTT dye reduction method, which is described in Weislow et al., J. Natl. Cancer Inst. 1989, vol. 81, 577-586.
(§3) H1-HeLa cells were infected with HRV-14 at a multiplicity of infection (m.o.i.) of 0.13 (virus particles/cell) or mock-infected with medium only. Infected or mock-infected cells were resuspended at 8×10^5 cells per mL, and incubated with appropriate concentrations of the compounds to be tested. Two days later, XTT/PMS was added to test plates and the amount of formazan produced was quantified spectrophotometrically at 450/650 nm. The EC50 value was calculated as the concentration of compound that increased the percentage of formazan production in compound-treated, virus-infected cells to 50% of that produced by compound-free, mock-infected cells. The 50% cytotoxic dose (CC50) was calculated as the concentration of compound that decreased the percentage of formazan produced in compound-treated, mock-infected cells to 50% of that produced by compound-free, mock-infected cells. The therapeutic index (TI) was calculated by dividing the CC50 value by the EC50 value.
(§4) All strains of human rhinovirus (HRV) for use in this assay were purchased from American Type Culture Collection (ATCC), except for HRV serotype-14 (produced from the infectious cDNA clone constructed by Dr. Robert Rueckert, Institute for Molecular Virology, University of Wisconsin, Madison, Wis.). HRV stocks were propagated and viral assays were performed in H1-HeLa cells (ATCC). Cells were grown in minimal essential medium with 10% fetal bovine serum, available from Life Technologies (Gaithersburg, Md.).
(§5) The compounds were tested against control compounds WIN 51711, WIN 52084, and WIN 54954 (obtained from Sterling-Winthrop Pharmaceuticals), Pirodavir (obtained from Janssen Pharmaceuticals), and Pleconaril (prepared according to the method described in Diana et al., J. Med. Chem 1995, vol. 38, 1355). Antiviral data obtained for the test compounds are shown in Tables 1 and 3, where all data are for HRV serotype-14 unless otherwise noted in parentheses.

[3] = tested on: HRV (2); test: Antirhinoviral H1-HeLa cell culture assay, HRV serotype 2; format: cell-based, human rhinovirus; settings: H1-HeLa cells, XTT
Description: as §2, §3, §4, §5

[4] = tested on: HRV (1A); test: Antirhinoviral H1-HeLa cell culture assay, HRV serotype 1A; format: cell-based; settings: Human rhinovirus sp., H1-HeLa cells, XTT
Description: as §2, §3, §4, §5

[5] = tested on: HRV (89); test: Antirhinoviral H1-HeLa cell culture assay, HRV serotype 89; format: cell-based, human rhinovirus; settings: H1-HeLa cells, XTT
Description: as §2, §3, §4, §5

[6] = tested on: HRV (39); test: Antirhinoviral H1-HeLa cell culture assay, HRV serotype 39; format: cell-based, human rhinovirus; settings: H1-HeLa cells, XTT
Description: as §2, §3, §4
(§6) The compounds were tested against control compounds WIN 51711, WIN 52084, and WIN 54954 (obtained from Sterling-Winthrop Pharmaceuticals), Pirodavir (obtained from Janssen Pharmaceuticals), and Pleconaril (prepared according to the method described in Diana et al., J. Med. Chem 1995, vol. 38, 1355). […]

[7] = tested on: HRV (10); test: Antirhinoviral H1-HeLa cell culture assay, HRV serotype 10; format: cell-based, human rhinovirus; settings: H1-HeLa cells, XTT
Description: as §2, §3, §4, §5

[8] = tested on: HRV (3); test: Antirhinoviral H1-HeLa cell culture assay, HRV serotype 3; format: cell-based, human rhinovirus; settings: H1-HeLa cells, XTT
Description: as §2, §3, §4, §6

[9] = tested on: HRV (9); test: Antirhinoviral H1-HeLa cell culture assay, HRV serotype 9; format: cell-based, human rhinovirus; settings: H1-HeLa cells, XTT
Description: as §2, §3, §4, §6

[10] = tested on: HRV (13); test: Antirhinoviral H1-HeLa cell culture assay, HRV serotype 13; format: cell-based, human rhinovirus; settings: H1-HeLa cells, XTT
Description: as §2, §3, §4, §6

[11] = tested on: HRV (17); test: Antirhinoviral H1-HeLa cell culture assay, HRV serotype 17; format: cell-based, human rhinovirus; settings: H1-HeLa cells, XTT
Description: as §2, §3, §4, §6

[12] = Cytotoxicity in mock-infected H1-HeLa cells (antirhinoviral assay, XTT); format: cell-based; settings: human, 50% cytotoxic dose, two days
Description: as §3, §4

[13] = biological target: T2, rhinovirus 3C protease, serotype 2 (Human rhinovirus 2, UniProt P04936); test: Inhibition of rhinovirus 3C protease (FRET assay), serotype 2; format: biochemical; settings: Rhinovirus Serotype (2) 3C protease; read-out: kobs/I
T2 construct: Recombinant rhinovirus 3C proteases; made in house
T2 sequence (P04936 1508-1690): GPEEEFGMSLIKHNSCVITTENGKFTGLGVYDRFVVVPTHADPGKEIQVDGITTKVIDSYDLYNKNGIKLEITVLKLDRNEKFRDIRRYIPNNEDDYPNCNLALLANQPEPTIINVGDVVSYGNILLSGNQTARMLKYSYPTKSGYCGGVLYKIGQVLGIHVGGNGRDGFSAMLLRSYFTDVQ
Description: as §1

[14] = Table 1, XTT dye reduction, read-out: Cell Protection EC50

| Structure (SMILES) | kinact/KI [1] | EC50 [2, 14] | EC50 ([2]; Table 3, XTT, read-out: EC50) | EC50 [4] | EC50 ([7]; Human rhinovirus sp., H1-HeLa) | CC50 at 2 days [12] | other results |
| --- | --- | --- | --- | --- | --- | --- | --- |
| CCOC(=O)/C=C/[C@H](CCC(N)=O)NC(=O)[C@H](Cc1ccccc1)NC(=O)[C@H](CC(C)C)NC(=O)c1cc(C)on1 [Compound A-1, Ethyl-3-((5′-Methylisoxazole-3′-carbonyl)-L-Leu-L-Phe-L-Gin)-E-Propenoate] | 260000 M⁻¹ s⁻¹ | 250 nM | 250 nM | 1000 nM | – | – | EC50 ([3]; Human rhinovirus sp., H1-HeLa): 410 nM; EC50 ([5]; Human rhinovirus sp.): 220 nM |
| CCOC(=O)/C=C/[C@H](C[C@@H]1CCNC1=O)NC(=O)[C@H](Cc1ccc(F)cc1)NC(=O)[C@@H](NC(=O)c1cc(C)on1)C(C)(C)C [Compound A-7, Ethyl-3-{(5′-Methylisoxazole-3′-carbonyl)-L-α-(t-Butyl-Gly)-L-(4-F-Phe)-L-((S)-Pyrrol-Ala)}-E-Provenoate] | 980000 M⁻¹ s⁻¹ | 4 nM | – | – | – | – | EC50 [3]: 20 nM; EC50 [5]: 20 nM; EC50 [6]: 20 nM; EC50 [7]: 60 nM; EC50 [8]: 20 nM; EC50 [9]: 40 nM; EC50 [10]: 30 nM; EC50 [11]: 20 nM |
| CCOC(=O)/C=C/[C@H](CCC(N)=O)NC(=O)[C@H](Cc1ccc(C)cc1)NC(=O)[C@@H](NC(=O)C1SCCS1)C(C)(C)C [Compound A-15] | 237000 M⁻¹ s⁻¹ | 220 nM | 220 nM | 7100 nM | 2700 nM | > 100000 nM | – |
| CCOC(=O)/C=C/[C@H](CCC(N)=O)NC(=O)[C@H](Cc1ccc(C)cc1)NC(=O)[C@@H](NC(=O)c1ccc[nH]1)C(C)(C)C [Compound A-16] | 173000 M⁻¹ s⁻¹ | 450 nM | 450 nM | 4800 nM | 4500 nM | > 100000 nM | – |
| CCOC(=O)/C=C/[C@H](CCC(N)=O)NC(=O)[C@H](Cc1ccc(F)cc1)NC(=O)[C@@H](NC(=O)C1SCCS1)C(C)(C)C [Compound A-17] | 167000 M⁻¹ s⁻¹ | 60 nM | 60 nM | 1800 nM | 3300 nM | > 100000 nM | – |
| CC(C)[C@H](NC(=O)C1SCCS1)C(=O)N[C@@H](Cc1ccc(F)cc1)C(=O)N[C@H](/C=C/C(=O)OCc1cccnc1)CCC(N)=O [Compound A-18] | 292000 M⁻¹ s⁻¹ | 1500 nM | 1500 nM | – | – | > 100000 nM | – |
| CCOC(=O)/C=C/[C@H](CCC(N)=O)NC(=O)[C@H](Cc1ccccc1)NC(=O)[C@H](CC(C)C)NC(=O)[C@@H]1C=CCN1 [Compound A-19] | 27800 M⁻¹ s⁻¹ | 25100 nM | 25100 nM | – | – | > 100000 nM | – |
| CCOC(=O)/C=C/[C@H](CCC(N)=O)NC(=O)[C@H](Cc1ccccc1)NC(=O)[C@H](CC(C)C)NC(=O)c1cc(C)oc1C [Compound A-20] | 1020 M⁻¹ s⁻¹ | 12600 nM | 12600 nM | – | – | > 100000 nM | – |
| CCOC(=O)/C=C/[C@H](CCC(N)=O)NC(=O)[C@H](Cc1ccccc1)NC(=O)[C@H](CC(C)C)NC(=O)c1nc(C)c[nH]1 [Compound A-21] | 17800 M⁻¹ s⁻¹ | 2500 nM | 2500 nM | – | – | > 100000 nM | – |
| CCOC(=O)/C=C/[C@H](C[C@@H]1CCNC1=O)NC(=O)[C@H](Cc1ccccc1)NC(=O)[C@H](CC(C)C)NC(=O)OCc1ccccc1 [Compound A-24, Ethyl-3-{Cbz-L-Leu-L-Phe-L-((S)-Pyrrol-Ala)}-E-Propenoate] | 257000 M⁻¹ s⁻¹ | 100 nM | 100 nM | – | – | – | kinact/KI [13]: 31000 M⁻¹ s⁻¹ |
| CCOC(=O)/C=C/[C@H](CCC(N)=O)NC(=O)[C@@H](CC(=O)[C@@H](NC(=O)c1cc(C)on1)C(C)C)Cc1ccc(F)cc1 [Compound B-1, Ethyl-3-[(5′-Methylisoxazole-3′-carbonyl)-L-ValΨ(COCH2)-L-(4-F-Phe)-L-Gln}-E-Propenoate] | 240000 M⁻¹ s⁻¹ | 100 nM | 100 nM | 300 nM | 400 nM | – | – |
